Reference: ChEMBL document CHEMBL3886943, “C2-azaspiro iminothiazine dioxides as BACE inhibitors, compositions, and their use” (2016)

Legend:
Beta-secretase 2 = molecular target: T1, Beta-secretase 2 (Homo sapiens, UniProt Q9Y5Z0); assay: DMSO is present at 5% final concentration in the assay. Following laser excitation of sample wells at 320 nm, the fluorescence signal at 620 nm is collected for 400 ms following a 50 us delay on a RUBYstar HTRF plate reader (BMG Labtechnologies). Raw RFU data is normalized to maximum (1.0 nM BACE/DMSO) and minimum (no enzyme/DMSO) RFU values. […] The Ki values are calculated from the IC50 using the Cheng-Prusoff equation.
T1 sequence (Q9Y5Z0 whole entry): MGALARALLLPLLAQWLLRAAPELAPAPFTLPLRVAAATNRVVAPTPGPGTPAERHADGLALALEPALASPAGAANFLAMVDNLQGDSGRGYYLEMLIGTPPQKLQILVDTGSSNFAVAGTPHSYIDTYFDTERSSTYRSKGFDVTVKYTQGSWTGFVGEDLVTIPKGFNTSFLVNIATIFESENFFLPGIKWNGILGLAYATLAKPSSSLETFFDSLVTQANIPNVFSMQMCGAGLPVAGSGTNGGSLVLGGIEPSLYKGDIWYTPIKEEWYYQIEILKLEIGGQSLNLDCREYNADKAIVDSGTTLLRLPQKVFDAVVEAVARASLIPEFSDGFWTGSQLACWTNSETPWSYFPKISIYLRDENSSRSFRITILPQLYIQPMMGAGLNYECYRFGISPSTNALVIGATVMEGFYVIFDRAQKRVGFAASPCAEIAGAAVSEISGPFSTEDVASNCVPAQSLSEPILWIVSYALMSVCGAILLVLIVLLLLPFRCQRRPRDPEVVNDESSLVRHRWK

Beta-secretase 1 = Beta-secretase 1 (Homo sapiens, UniProt P56817); assay: This assay monitors the increase of 620 nm fluorescence that resulted from BACE1 cleavage of an APPswedish APPswe mutant peptide FRET substrate (QSY7-[…]-Europium-amide). This substrate contains an N-terminal QSY7 moiety that serves as a quencher of the C-terminal Europium fluorophore (620 nm Em). […] Reactions are initiated by addition of 10 ul of 600 nM QSY7-APPswe-Eu substrate (200 nM final) to give a final reaction volume of 30 ul in a 384 well Nunc HTRF plate. The reactions are incubated at 30° C. for 1.5 hours. The 620 nm fluorescence is then read on a Rubystar HTRF plate reader (BMG Labtechnologies) using a 50 millisecond delay followed by a 400 millisecond acquisition time window. Inhibitor IC50 values are derived from non-linear regression analysis of concentration response curves.
Beta-secretase 1, sequence (P56817 whole entry): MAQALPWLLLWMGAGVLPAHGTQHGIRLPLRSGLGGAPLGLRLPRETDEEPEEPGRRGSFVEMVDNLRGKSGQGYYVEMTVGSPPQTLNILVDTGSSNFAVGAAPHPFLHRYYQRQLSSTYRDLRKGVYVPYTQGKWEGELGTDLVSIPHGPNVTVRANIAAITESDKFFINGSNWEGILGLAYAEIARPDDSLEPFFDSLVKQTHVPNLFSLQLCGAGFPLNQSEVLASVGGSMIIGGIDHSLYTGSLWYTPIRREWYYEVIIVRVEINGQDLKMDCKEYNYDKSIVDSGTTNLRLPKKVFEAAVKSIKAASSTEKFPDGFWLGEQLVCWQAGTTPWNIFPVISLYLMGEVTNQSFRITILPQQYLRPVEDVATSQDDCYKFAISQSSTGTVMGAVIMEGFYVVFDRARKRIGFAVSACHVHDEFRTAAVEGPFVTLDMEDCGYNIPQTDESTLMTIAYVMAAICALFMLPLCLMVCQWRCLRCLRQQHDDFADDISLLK

- Ki (Beta-secretase 2): 210 nM
- Ki (Beta-secretase 1): 1710 nM
Structure (SMILES): CN1CCC2(CC1)C(=N)N[C@](C)(c1cc(NC(=O)C(F)F)ccc1F)CS2(=O)=O
